Source: patent US9556437B2, “FAT1 gene in cancer and inflammation” (DEPARTMENT OF BIOTECHNOLOGY (DBT), priority 2012, dated 2017)
“Also recorded” adds a separate entry of the source.

Assays:
Assay type in all cases: cell-based, human
PDCD4 = PDCD4 mRNA expression by q-PCR; settings: 72 hrs post siRNA transfection
Method: (§1) Cell Culture and siRNA Transfection: The human glioma cell lines U87MG, U373, A172, T98G, GOS3 and SW1088 were obtained from ATCC; Rockville, Md., cultured in DMEM (Sigma-Aldrich, Switzerland) supplemented with 10% (v/v) FCS (Sigma-Aldrich), 3.7 g/l sodium bicarbonate (Sigma-Aldrich), Ciprofloxacin 10 μg/ml and 5% CO2 at 37° C. For transfection, 2×10^5 cells were seeded per 25 cm^2 flask. After 24 hrs, cells were transfected with FAT1 siRNA and universal medium GC control siRNA (Invitrogen) according to the manufacturer's protocol with a final concentration of 20 nM of siRNA using LIPOFECTAMINE 2000 (Invitrogen) and Opti-Mem media (Invitrogen). After 4 hrs of siRNA transfection, the media was supplemented with DMEM containing 2×FCS. The ability of each siRNA to mediate knockdown of FAT1 mRNA was confirmed using qRT-PCR. Photomicrographs of the cells were taken using an inverted phase contrast microscope (Nikon TMS, Phase contrast microscope, Japan). For simultaneous knockdown of FAT1 and PDCD4, siRNA from Dharmacon were used. Transfection was performed as earlier with 50 nM of FAT1 siRNA along with 50 nM of PDCD4 siRNA or 50 nM of control siRNA.
cDNA Synthesis and Quantitative PCR: Total RNA was isolated from cells at appropriate time point (vide supra) using TRIzol reagent (Invitrogen), quantified using a Nanodrop ND-1000 spectrophotometer. DNase (Ambion) treatment was given and 1 μg of total RNA was used for cDNA synthesis, done by Fermentas RevertAid™ First Strand cDNA Synthesis Kit using random decamers. PCR reactions were carried in 10 μL reaction volumes (2.5 μL of 1:5 diluted cDNA, […] of primer mix (0.5 pmol/μL as final concentration of each primer), 1 μL, of 10× Taq Buffer A, 0.5 U Taq polymerase (Bangalore Genei, Bangalore, India), 1 μL Syto9 (Invitrogen), 0.25 μL of 10 mM dNTPs (MBI Fermentas, Thermo Fisher Scientific, Rockford, Ill. USA), and 4.6 μL of nuclease-free water (Ambion) on a RotorGene6000 Real Time PCR in triplicates. The detail of the primers used is given in Table 1. ΔCt values were defined as target gene Ct minus 18s RNA Ct and averaged for each triplicate sample. Statistical significance was determined by Student's t-test analysis (P<0.05).

PLAU (Urokinase) = experiment: PLAU mRNA expression by q-PCR; settings: U87MGsiFAT1 cells
Method: as §1
(§2) cDNA Synthesis and Quantitative PCR: Total RNA was isolated from cells at appropriate time point (vide supra) using TRIzol reagent (Invitrogen), quantified using a Nanodrop ND-1000 spectrophotometer. […]

VEGF-C = VEGF-C mRNA expression by q-PCR; settings: U87MGsiFAT1 cells
Method: as §1, §2

IL6 = IL6 mRNA expression by q-PCR; settings: U87MGsiFAT1 vs siControl
Method: as §1, with “The ability of each siRNA to mediate knockdown of FAT1 mRNA was confirmed using qRT-PCR.” left out
cDNA Synthesis and Quantitative PCR: Total RNA was isolated from cells at appropriate time point (vide supra) using TRIzol reagent (Invitrogen), quantified using a Nanodrop ND-1000 spectrophotometer.

U87MG and A172 cells = experiment: Cell morphology, phase contrast microscopy; settings: U87MGsiFAT1 and A172siFAT1 vs siControl, 72 hrs post transfection
Method: as §1

PGE2 = PGE2 ELISA of conditioned medium; settings: U87MGsiFAT1 vs siControl, 72 hrs, p<0.01
Method: PGE2 ELISA: U87MG cells (2.5×10^5 cells/flask) were plated into 25 cm^2 flask. Transfection was performed on day 1 and 72 hrs later, the conditioned medium was collected and concentrated using Centricon YM-30. The concentration of PGE2 secreted into the medium was measured with an EIA kit for human PGE2 (Cayman Chemical, Michigan, USA).

COX-2 promoter = COX-2 promoter luciferase assay; settings: U87MG, vs siControl+DMSO; SR11302 10 μM, 48 hrs
Method: AP-1 and COX-2 Promoter Luciferase Assay: U87MG cells (40000 cells/well) were plated in 6-well plates in triplicate on day zero. On day 1, cells were transfected with siFAT1 and siControl. On day 2 cells were transiently transfected with 4×AP-1-luciferase reporter plasmids as described previously. Cells were transfected with 1 μg of AP-17× luciferase reporter plasmid, along with 50 ng of pRL-TK (Renilla luciferase) control plasmid using LIPOFECTAMINE2000 as the transfection reagent. After 48 hrs, the cells were lysed by 1× passive-lysis-buffer (Promega, Madison, Wis., USA) and assayed for luciferase activity as previously described. For COX-2 luciferase assay U87MG cells were transfected with siFAT1 and siControl on day 1 and after 4 hrs incubation were treated with 10 μM SR11302. On day2 cells were transiently transfected with COX-2 reporter plasmid and again treated with 10 μM SR11302. After 48 hrs, the cells were assayed for luciferase activity.

c-jun = c-jun mRNA level by q-PCR; settings: U87MGsiFAT1 vs U87MGsiControl
Method: as §1, §2

## siFAT1: FAT1 specific siRNA (Invitrogen), FAT Stealth RNAi siRNA-I (HSS103567), used for further experiments (sense CCCAACACACCUGUGGUCAUGGUAA; antisense UUACCAUGACCACAGGUGUGUUGGG; Stealth modification, chemistry not fully specified; listed as Homo sapiens)
PDCD4; A172, vs siControl
  increase in PDCD4 mRNA expression: 2.8 fold
PDCD4; T98G, vs siControl
  increase in PDCD4 mRNA expression: 3.5 fold
PDCD4; U87MG, vs siControl
  increase in PDCD4 mRNA expression: 2.4 fold
PDCD4; U373MG, vs siControl
  increase in PDCD4 mRNA expression: 3.2 fold
PDCD4; all the GBM cell lines (U87MG, A172, U373 and T98)
  increase in PDCD4 mRNA expression: more than two fold
PLAU (Urokinase)
  decrease in PLAU mRNA expression: more than 10 fold
VEGF-C
  decrease in VEGF-C mRNA expression: more than 10 fold
IL6
  reduction in IL6 mRNA expression: ~10 fold
U87MG and A172 cells
  cell morphology: significant morphological alterations; also recorded: Distinct phenotypic changes
PGE2
  reduction of PGE2 secreted into the medium: > 2 fold
COX-2 promoter
  decrease in COX-2 luciferase activity: 1.8 fold
c-jun
  c-jun mRNA level: decreased by two folds; also recorded: reduced by two folds
